Target: T1, CYP4A11 (Homo sapiens, UniProt Q02928)
T1 sequence (Q02928 5-519): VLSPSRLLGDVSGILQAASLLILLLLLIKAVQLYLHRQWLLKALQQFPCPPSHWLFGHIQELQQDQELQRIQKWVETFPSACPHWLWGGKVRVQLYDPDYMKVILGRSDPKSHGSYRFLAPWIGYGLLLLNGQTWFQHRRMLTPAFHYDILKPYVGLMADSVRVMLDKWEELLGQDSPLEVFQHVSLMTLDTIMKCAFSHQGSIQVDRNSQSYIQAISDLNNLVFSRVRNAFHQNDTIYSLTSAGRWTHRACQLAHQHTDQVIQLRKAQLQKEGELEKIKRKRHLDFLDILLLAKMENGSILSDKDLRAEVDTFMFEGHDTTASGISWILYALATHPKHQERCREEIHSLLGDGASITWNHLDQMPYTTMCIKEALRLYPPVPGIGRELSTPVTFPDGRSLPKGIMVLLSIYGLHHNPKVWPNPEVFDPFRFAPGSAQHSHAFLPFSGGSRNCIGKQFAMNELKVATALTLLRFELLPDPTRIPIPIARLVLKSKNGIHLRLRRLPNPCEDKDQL
Experiment: MONACRA demethylation by recombinant CYP4A11 in Supersomes, high-throughput fluorimetric assay
Assay type: biochemical
Design: purchased Gentest (Huntsville, AL), now a part of Discovery Life Sciences lot 2402280; host or cells: insect cells, recombinant baculovirus
Conditions: Michaelis–Menten fit, ± = confidence interval P=0.05
Experimental: Based on these observations, we developed a high-throughput automated assay applicable for studying SSPs of MONACRA metabolism by microsomal P450 enzymes. In this procedure, the incubation mixtures containing an NADPH-generating system and various substrate concentrations are placed in a multiwell plate and preincubated at 30°C in a thermostated shaker. The reaction is started by adding microsomal suspension to the final concentration of 0.3–1 mg/ml of microsomal protein or 0.02–0.1 µM of recombinant P450 enzymes in Supersomes. Following the incubation for 20 min at 30°C, the reaction is quenched by adding trichloroacetic acid (final concentration […]). After supplementing the wells with Na-glycine buffer (pH 10.4, final concentration 2.1 M), the plates are subjected to scanning the fluorescence spectra with excitation at 375 nm. This assay, which is described in detail in Materials and Methods, allows reliable detection of the concentrations of HONACRA as low as 0.1 µM.
We used the high-throughput activity assay described above to probe MONACRA metabolism by 16 human microsomal P450 enzymes, namely CYP1A2, CYP2A6, CYP2B6, CYP2C8, CYP2C9, CYP2C19, CYP2D6, CYP2E1, CYP2J2, CYP3A4, CYP3A5, CYP4A11, CYP4F2, CYP4F3A, CYP4F3B, and CYP4F12. […]

- Vmax: 66.8 ± 17.5 min⁻¹
Structure (SMILES): COc1ccc2cc(C=CC(=O)O)ccc2c1 [MONACRA, 3-(6-methoxynaphthalen-2-yl)acrylic acid]

From publication PMC12191924, “A new naphthalene-based fluorogenic substrate for cytochrome P450 4A11” (Biochemical Journal, 2025)
